In the assay the target is T1, Thymidine phosphorylase (Escherichia coli (strain SMS-3-5 / SECEC), UniProt B1LEI7).
T1 sequence (B1LEI7 whole entry): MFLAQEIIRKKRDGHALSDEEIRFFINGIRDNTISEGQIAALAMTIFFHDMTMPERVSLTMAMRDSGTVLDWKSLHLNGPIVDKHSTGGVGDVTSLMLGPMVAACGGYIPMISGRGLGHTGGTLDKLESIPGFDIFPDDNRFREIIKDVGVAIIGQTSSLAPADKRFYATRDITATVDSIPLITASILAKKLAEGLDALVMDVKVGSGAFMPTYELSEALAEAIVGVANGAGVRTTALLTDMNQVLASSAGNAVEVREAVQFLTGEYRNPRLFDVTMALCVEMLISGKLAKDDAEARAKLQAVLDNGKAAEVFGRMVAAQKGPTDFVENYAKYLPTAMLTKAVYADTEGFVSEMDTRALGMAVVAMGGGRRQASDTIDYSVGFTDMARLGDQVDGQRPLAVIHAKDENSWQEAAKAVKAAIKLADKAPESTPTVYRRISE
Put plainly: Thymidine Phosphorylase Inhibition Assay. The following applies: pH 7. On the procedure:
TP inhibition assay was performed spectrophotometrically. The method of Bera et al. was followed with slight modifications. Reaction mixture of 200 µL, contained 20 µL of enzyme (0.058 unit/well), 150 µL of potassium phosphate buffer (pH 7.0, 50 mM), and 10 µL of test compound (0.5 mM). The reaction mixture was then incubated for 10 min at 30 °C. […] Every experiment was run in triplicate. 7-Deazaxanthine was used as positive control.
In general, IC50 refers to the point on the concentration scale where inhibition reaches its midpoint. Read a high IC50 as weaker potency in that assay. Molecule `O=c1[nH]c(-c2ccc(O)cc2)nc2ccccc12` had an IC50 of 234 µM.
To `O=c1[nH]c(-c2cccc(O)c2)nc2ccccc12` belongs 295 µM; to `COc1ccc(-c2nc3ccccc3c(=O)[nH]2)cc1O`, 169 µM; to `CCOc1cc(-c2nc3ccccc3c(=O)[nH]2)ccc1O`, 256 µM.
With `O=c1[nH]c(-c2ccc(O)c(O)c2)nc2ccccc12`, the half-maximal inhibitory concentration (IC50) is 42.9 µM.
As for `O=c1[nH]c(-c2cc(O)ccc2O)nc2ccccc12`, the midpoint of inhibition, the IC50, lay at 59.5 µM.

Source of the values: BindingDB's records for doi:10.1016/j.bioorg.2015.10.006 (University of Karachi, 2015).
